Test results published in US11147272B2, “Pyridone compounds and agricultural and horticultural fungicides comprising the same as active ingredients” (MITSUI CHEMICALS AGRO, INC., priority 2017, dated 2021).

What was measured:
Magnaporthe grisea = assay: whole plant or invertebrate; assay type: in vivo; conditions: Blast on rice; control value class
Alternaia brassicicola = assay: Test Example C: Alternaria sooty spot on cabbage; assay type: in vivo; conditions: Alternaria sooty spot on cabbage; control value class
Description: Seeds of a test plant (cabbage variety: Shikidori) were planted and cultivated until the cotyledons extended.
<Control Value> Control value=100{1−(n/3)}

Puccinia recondita = assay: Test Example E: Brown rust on wheat; assay type: in vivo; conditions: Brown rust on wheat; control value class
Phytophthora infestans = assay: whole plant or invertebrate; assay type: in vivo; conditions: Late blight on tomato; control value class
Botrytis cinerea = assay: Test Example B: Gray mold on tomato; conditions: Gray mold on tomato; control value class
Plasmopara viticola = assay: Test Example G: Downy mildew on vine; conditions: Downy mildew on vine; 250 ppm spray, 7 to 10 days after inoculation
[1] = tested on: Colletotrichum orbiculare; assay: Test Example H: Anthracnose on cucumber; conditions: Anthracnose on cucumber; 250 ppm spray, 6 to 10 days after inoculation
[2] = tested on: Blumeria graminis f. sp. hordei; assay: Test Example D: Powdery mildew on barley; conditions: Powdery mildew on barley; control value class

Row | Structure (SMILES) | Test A control value (Magnaporthe grisea) | Test C control value (Alternaia brassicicola) | Test E control value (Puccinia recondita) | Test F control value (Phytophthora infestans) | Test B control value (Botrytis cinerea) | Test G control value (Plasmopara viticola) | Test H control value [1] | Test D control value [2]
1 | CCc1ccc(=O)n(C)c1-c1ccc(OC)cc1Br [compound 354] | L (50% or less control value) | L (50% or less control value) | H (more than 50% control value) | L (50% or less control value) | L (50% or less control value) | L (50% or less control value) | H (more than 50% control value) | L (50% or less control value)
2 | CCc1cc(Cl)c(=O)n(CC)c1-c1ccc(OC)cc1C [compound 355] | H (more than 50% control value) | H (more than 50% control value) | H (more than 50% control value) | L (50% or less control value) | H (more than 50% control value) | L (50% or less control value) | H (more than 50% control value) | H (more than 50% control value)
3 | CCc1cc(Br)c(=O)n(CC)c1-c1ccc(OC)cc1C [compound 356] | H (more than 50% control value) | H (more than 50% control value) | H (more than 50% control value) | L (50% or less control value) | H (more than 50% control value) | L (50% or less control value) | H (more than 50% control value) | H (more than 50% control value)
4 | CCc1cc(Cl)c(=O)n(C)c1-c1ccc(OC)cc1Br [compound 357] | H (more than 50% control value) | L (50% or less control value) | H (more than 50% control value) | L (50% or less control value) | H (more than 50% control value) | L (50% or less control value) | H (more than 50% control value) | L (50% or less control value)
5 | CCc1cc(Br)c(=O)n(C)c1-c1ccc(OC)cc1Br [compound 358] | L (50% or less control value) | L (50% or less control value) | H (more than 50% control value) | L (50% or less control value) | H (more than 50% control value) | L (50% or less control value) | L (50% or less control value) | H (more than 50% control value)
6 | CCCC1=C(c2ccc(F)cc2Br)N(CC)C(=O)CC1 [compound 359] | L (50% or less control value) | L (50% or less control value) | L (50% or less control value) | L (50% or less control value) | L (50% or less control value) | L (50% or less control value) | L (50% or less control value) | H (more than 50% control value)
7 | CCc1ccc(=O)n(C)c1-c1ccc(F)cc1C [compound 360] | L (50% or less control value) | L (50% or less control value) | L (50% or less control value) | H (more than 50% control value) | L (50% or less control value) | L (50% or less control value) | L (50% or less control value) | L (50% or less control value)
8 | CCCc1ccc(=O)n(CC)c1-c1ccc(F)cc1Br [compound 361] | H (more than 50% control value) | L (50% or less control value) | H (more than 50% control value) | L (50% or less control value) | H (more than 50% control value) | L (50% or less control value) | L (50% or less control value) | H (more than 50% control value)
9 | CCc1cc(Cl)c(=O)n(C)c1-c1ccc(F)cc1C [compound 362] | H (more than 50% control value) | L (50% or less control value) | H (more than 50% control value) | L (50% or less control value) | H (more than 50% control value) | L (50% or less control value) | L (50% or less control value) | H (more than 50% control value)
10 | CCc1cc(Br)c(=O)n(C)c1-c1ccc(F)cc1C [compound 363] | H (more than 50% control value) | L (50% or less control value) | H (more than 50% control value) | L (50% or less control value) | H (more than 50% control value) | H (more than 50% control value) | L (50% or less control value) | L (50% or less control value)
11 | CCn1c(-c2c(F)cc(F)cc2F)c(C=O)cc(Br)c1=O [compound 364] | L (50% or less control value) | H (more than 50% control value) | H (more than 50% control value) | L (50% or less control value) | H (more than 50% control value) | H (more than 50% control value) | L (50% or less control value) | L (50% or less control value)
12 | CCn1c(-c2c(F)cc(F)cc2F)c(C(O)C(C)C)cc(Br)c1=O (stereo not drawn) [compound 365] | H (more than 50% control value) | H (more than 50% control value) | H (more than 50% control value) | L (50% or less control value) | H (more than 50% control value) | H (more than 50% control value) | H (more than 50% control value) | H (more than 50% control value)
13 | CCn1c(-c2c(F)cc(F)cc2F)c(C(=O)C(C)C)cc(Br)c1=O [compound 366] | H (more than 50% control value) | H (more than 50% control value) | H (more than 50% control value) | L (50% or less control value) | H (more than 50% control value) | H (more than 50% control value) | H (more than 50% control value) | H (more than 50% control value)
14 | CCc1ccc(=O)n(C)c1-c1ccc(OC)cc1C [compound 367] | L (50% or less control value) | L (50% or less control value) | L (50% or less control value) | L (50% or less control value) | L (50% or less control value) | L (50% or less control value) | H (more than 50% control value) | H (more than 50% control value)
15 | CCCc1cc(Cl)c(=O)n(CC)c1-c1ccc(F)cc1Br [compound 368] | H (more than 50% control value) | H (more than 50% control value) | H (more than 50% control value) | H (more than 50% control value) | H (more than 50% control value) | H (more than 50% control value) | H (more than 50% control value) | H (more than 50% control value)
